Patent US9956199B2, “Chromane-like cyclic prenylflavonoids for the medical intervention in neurological disorders” (priority 2011, dated 2018)
“Also recorded” adds a separate entry of the source.

System: MEF cells
Assay: neurite length and branching in MEF cultures
Assay type: cell-based, mouse
Conditions: 10 μM and 100 μM, 7 days
Method: Mouse embryonic day 16 forebrain cells were prepared and treated as described in Example 17.
The morphology of MEF cells after a 7 day treatment with retinoic acid/valproic acid or with compound 1a (ENDF1) is illustrated in FIG. 4. Cells were fixed and stained with DCX and Map2ab antibodies as described in Example 18. Three independent experiments were performed and evaluated. Data acquisition was done by using the software Volocity 5.3.1 for measurement and photographical documentation. The following parameters were analyzed: polarity, process, number of branches, number and length of sprouts, neurite-length and growth cone morphology.
For quantitative analysis of neurite length, neurons with long neurites were taken into consideration. […] For quantitative analysis of neurite branching, the branch density (number of branches per 100 μm of neurite length) was counted. For analysis, the DCX staining with DMEM-KO medium was used, since DCX, in contrast to Map2ab, is localized throughout the neurites.

In the case of `COc1cc2c(c(O)c1C(=O)/C=C/c1ccc(O)cc1)C=CC(C)(C)O2` [Compound 1a, (E)-1-(5-hydroxy-7-methoxy-2,2-dimethyl-2H-chromen-6-yl)-3-(4-hydroxyphenyl)prop-2-en-1-one], the “neurite branching/sprouting (branches per 100 μm of neurite length)” value (DMEM-KO, FIG. 4J) is reported as “high density of branches/sprouts; also recorded: strongly increases neurite length and neurite branching; also recorded: dramatic increase in branching/sprouting” and the “neurite length (DCX positive neurite profiles)” value (compared to control and RA+VPA, FIG. 4I) is reported as “significant increase in neurite length; also recorded: strongly increases neurite length and neurite branching; also recorded: much longer neurites”.
